Results: US20230027104A1, “NUTRITIONAL POWDER COMPRISING OLIGOPEPTIDES AND APPLICATIONS THEREOF” (Suzhou Jianyuan Biotechnology Co., Ltd., priority 2021, published 2023)
Marks after values point to notes of the source that are not given here.

Legend:
Assay type in all cases: in vivo, human
[1] = system: healthy middle-aged men and women; experiment: Hangover cure and rehabilitation effect after excessive drinking of red wine (self-rated discomfort level); details: 1 cysteine tablet (1200 mg L-cysteine) before dinner
Description: (§1) Thirty-six healthy middle-aged men and women were chosen and divided into four groups, namely, the control group, the cysteine group, the 5 g oligopeptide nutrition group (prepared in Example 3) and the 10 g oligopeptide nutrition group (prepared in Example 3), and they experienced the hangover cure and rehabilitation effect of the oligopeptide nutritional powder for excessive drinking of red wine. Ten to twenty minutes before dinner, 150 mL of plain boiled water at a temperature of 35° C. was prepared for each person. In the control group, the subjects only drank plain boiled water; in the cysteine group, the subjects took 1 cysteine tablet (each comprising 1200 mg L-cysteine, produced by U.S. Now Food) when drinking water; in the 5 g oligopeptide nutritional group, the subjects put 5 g of the oligopeptide nutritional powder into a cup, poured 150 mL of plain boiled water, stirred to dissolve and drink; in the 10 g oligopeptide nutritional group, the subjects put 10 g of the oligopeptide nutritional powder into a cup, poured 150 mL of plain boiled water, stirred to dissolve and drink.
Dinners started at 18:00 and ended at 20:00. Each of 36 subjects drank 400 mL of red wine (France Saint Arnaud Cabernet Sauvignon 2015, 13.5% vol. Cabernet Sauvignon). […] All subjects' forms were collected, and the subjects' conditions were recorded and analyzed by classification.

[2] = Effect on blood alcohol content after drinking liquor or red wine (breath alcohol tester)
Description: Thirty healthy middle-aged men and women were chosen and divided into three groups, namely, the control group, the cysteine group and the 10 g oligopeptide nutrition group. After drinking liquor and red wine, the effects of the oligopeptide nutritional powder on the blood alcohol contents were compared. Ten to twenty minutes before dinner, 150 mL of plain boiled water at a temperature of 35° C. was prepared for each person. In the control group, the subjects only drank plain boiled water; in the cysteine group, the subjects took 1 cysteine tablet (each comprising 1200 mg L-cysteine, produced by U.S. Now Food) when drinking water; in the 10 g oligopeptide nutritional group, the subjects put 10 g of the oligopeptide nutritional powder into a cup, poured 150 mL of plain boiled water, stirred to dissolve and drink.
Dinners started at 18:00 and ended at 20:00. Each of 30 subjects drank 200 mL of liquor (Kweichow Moutai Liquor 2018, 53% vol. 106 PROOF) or 400 mL of red wine (France Saint Arnaud Cabernet Sauvignon 2015, 13.5% vol. Cabernet Sauvignon) within two hours. The subjects' dinners were mainly Chinese stir-fried dishes, including fish, meat and vegetables, with rice as the staple food, and the dinners lasted two hours. Every 30 minutes after the start of drinking, the breath alcohol tester (Mr. Black-03) was used to test the blood alcohol content of each subject for four hours, then test once every two hours; on the 16th hour after drinking, the test was over. The data of the subjects were recorded separately, and the statistical analysis of data was performed by groups. The blood alcohol metabolism curve of each group was completed by Gaussian Fitting method. For oligopeptide nutritional powder, after 4 hours of excessive drinking of liquor and red wine, namely, 2 hours after the end of meals, the blood alcohol content was measured, as shown in Table 3.

[3] = system: healthy middle-aged men and women; experiment: Summary of hangover cure and rehabilitation effects on excessive drinking of liquor and red wine; details: liquor and red wine summarised, 1200 mg cysteine
Description: as §1, with “3).” for “3), and they experienced the hangover cure and rehabilitation effect of the oligopeptide nutritional powder for excessive drinking of red wine.”, “dinner (at time 18:00),” for “dinner,”, “person in advance.” for “person.”
Dinners started at 18:00 and ended at 20:00. Each of 36 subjects drank 200 mL of liquor (Kweichow Moutai Liquor 2018, 53% vol. 106 PROOF) within two hours. The subjects' dinners were mainly Chinese stir-fried dishes, including fish, meat and vegetables, with rice as the staple food, and the dinners lasted two hours. In the next morning at 8:00 (12 hours after drinking) and in the third morning at 8:00 (36 hours after drinking), the subjects filled in the forms, indicating personal feelings. The personal feelings included 5 levels, namely, level 0 indicated no discomfort, level 1 indicated slight tiredness, level 2 indicated feeling of dizziness, level 3 indicated headache, level 4 indicated nausea or vomiting, requiring stay in bed. All subjects' forms were collected, and the subjects' conditions were recorded and analyzed by classification.
Thirty-six healthy middle-aged men and women were chosen and divided into four groups, namely, the control group, the cysteine group, the 5 g oligopeptide nutrition group (prepared in Example 3) and the 10 g oligopeptide nutrition group (prepared in Example 3), and they experienced the hangover cure and rehabilitation effect of the oligopeptide nutritional powder for excessive drinking of red wine. Ten to twenty minutes before dinner, 150 mL of plain boiled water at a temperature of 35° C. was prepared for each person. […]
Dinners started at 18:00 and ended at 20:00. […] All subjects' forms were collected, and the subjects' conditions were recorded and analyzed by classification.

[4] = system: healthy middle-aged men and women; experiment: Hangover cure and rehabilitation effect after excessive drinking of liquor (self-rated discomfort level); details: 1 cysteine tablet (1200 mg L-cysteine) before dinner
Description: as §1, with “3).” for “3), and they experienced the hangover cure and rehabilitation effect of the oligopeptide nutritional powder for excessive drinking of red wine.”, “dinner (at time 18:00),” for “dinner,”, “person in advance.” for “person.”
Dinners started at 18:00 and ended at 20:00. Each of 36 subjects drank 200 mL of liquor (Kweichow Moutai Liquor 2018, 53% vol. 106 PROOF) within two hours. […] All subjects' forms were collected, and the subjects' conditions were recorded and analyzed by classification.

N[C@@H](CS)C(=O)O [cysteine tablets, L-cysteine]
subjects with obvious discomfort (>2 degree of discomfort) ([1]; 12 hours after drinking 400 mL red wine): 44.4% | subjects with obvious discomfort ([1]; 36 hours after drinking 400 mL red wine): 22.2% | Blood alcohol content 4 hours after drinking liquor ([2]; 200 mL liquor, 1200 mg cysteine before dinner, breath alcohol tester): 42.3 ± 3.1^b mg/100 mL | Blood alcohol content 4 hours after drinking red wine ([2]; 400 mL red wine, 1200 mg cysteine before dinner, breath alcohol tester): 38.7 ± 6.8^ab mg/100 mL | blood alcohol content versus alcohol content threshold for drunk driving ([2]; within 4 hours of drinking liquor or red wine, cysteine group (1200 mg)): > 20 mg/100 mL | Proportion of > degree 2 discomfort 12 hours after drinking wine [3]: 44.4% | Proportion of > degree 2 discomfort 12 hours after drinking wine ([3]; listed as Cysteine): 44.4%^b | Proportion of > degree 2 discomfort 36 hours after drinking wine ([3]; listed as Cysteine): 22.2%^a | Proportion of > degree 2 discomfort 36 hours after drinking wine ([3]; listed as cysteine): 22.2% | subjects with obvious discomfort (>2 degree of discomfort) ([4]; 12 hours after drinking 200 mL liquor): 44.4% | subjects with obvious discomfort ([4]; 36 hours after drinking 200 mL liquor): 22.2%
